Assay results as given in patent publication US8097728B2, “Iminosugar compounds with antiflavirus activity” (Philadelphia Health & Education Corporation, priority 2007, dated 2012).

Tested on: BVDV
Test: BVDV single cycle virus yield reduction assay in MDBK cells
Type: cell-based, Bovine Viral Diarrhea virus (NADL strain)
Settings: MDBK cells, virus yield reduction; FIG. 2C / 4C
Procedure: BVDV antiviral and plaque assays. To evaluate antiviral activity against BVDV, a single cycle virus yield reduction assay was performed in the presence of various concentrations of the test compounds. Specifically, 2×10^5 MDBK cells/well were plated in 24 well plates. Twenty-four hours later, the cells were infected with BVDV at a multiplicity of infection (moi) of 0.5 PFU/cell in 100 ul complete media. After adsorption for 1 h at 37° C., the inoculum was removed, and cells were washed with media before media containing vehicle or various concentrations of each compound was added. At 22 hour post infection, both cell and media were collected and freeze-thawed three times before the virus was titered. For BVDV virus titer determination, 10^−2, 10^−3, and 10^−4 dilutions of virus were inoculated onto MDBK cells as described previously (Gu et al., 2000; Jordan et al., 2002). After absorption and washing the cells were overlaid with medium containing methylcellulose or soft agar and incubated at 37° C. for 3 days or until plaques were visible. Plaques were counted directly under the microscope or after staining with crystal violet in 70% methanol for 15 min.
The anti-viral activity of this family of compounds against BVDV was then determined by a single cycle viral yield reduction assay in Madin Darby Bovine Kidney (MDBK) cells where the compounds are incubated with cells for 20 hours during the period of infection. Yields of virus were then determined by plaque assay on new MDBK cell monolayers. Compound toxicity was measured by MTT assay and the CC50 determined as the concentration of compound producing 50% reduction in absorption readings. […] This is consistent with previous findings in which oxygenation and methoxylation of side chains emanating from the ring nitrogen were less toxic in tissue culture and in animals than straight chain alkylated DNJs (Mehta et al., 2002b).

Compound | antiviral activity against BVDV (in words)
OC[C@@H]1[C@@H](O)[C@H](O)[C@@H](O)CN1CCCCCCC1CCCCC1 [OSL-2, N-hexylcyclohexyl-DNJ] | appeared to be inactive against BVDV
OC[C@@H]1[C@@H](O)[C@H](O)[C@@H](O)CN1CCCCC1=CCCCC1 [OSL-12-51, N-butyl(1-cyclohexenyl)-DNJ] | substantially less active against BVDV
CCOCCCCCN1C[C@H](O)[C@@H](O)[C@H](O)[C@H]1CO [Compound 6-08, 6′-oxaoctyl-DNJ] | retained the best antiviral activity of the series
